Values of other authors in patent publication US4181677A, “2-Benzoyl-3-alkoxy-2-alkenonitriles” (American Cyanamid Company, priority 1978, dated 1980).

Test system: joint and bone deterioration
Conditions: S. Wong et al. (1973); G. R. Bobalick et al. (1974)

COc1ccc2c(c1)c(CC(=O)O)c(C)n2C(=O)c1ccc(Cl)cc1 [Indomethacin]
prevention of joint and bone deterioration: prevent joint and bone deterioration
